This data set is described as follows: Aerodynamic particle size distribution (APSD) by Next Generation Impactor (NGI), fine particle mass and its stability. Type of data set: physicochemical. The conditions noted are these: 1000 μg dose load in 20 mg formulation, NGI 60 Lmin^−1, F1 device. How it is done: The aerodynamic particle size distribution (APSD) of the formulations was evaluated with the Next Generation Impactor (NGI) tested at a flow rate of 80 Lmin^−1 in the GyroHaler® device (Compound 1—Gentisic Acid) and 60 Lmin^−1 in the F1 device (Compound 1, Compound 1—Maleic Acid and Compound 1—Adipic Acid). One dose was collected for each NGI measurement. Compound 1 deposition on the NGI components was measured by a gradient high performance liquid Chromatography (HPLC) method with UV detection.
The co-crystals with adipic acid and maleic acid were tested in a Vectura unit dose device as disclosed in WO2010/086285, and the gentisic acid co-crystal was tested in a GyroHaler® device.

SMILES strings stand for the structures.

Consider `Cn1c(=O)n([C@H]2CCCN(C(=O)CC#N)C2)c2nc(-c3cnn4ccccc34)ccc21` [Compound 1, (S)-3-(3-(1-methyl-2-oxo-5-(pyrazolo[1,5-a]pyridine-3-yl)-1H-imidazo[4,5-b]pyridine-3(2H)-yl)piperidin-1-yl)-3-oxopropanenitrile], for which the “Fine particle Mass (μg < 5 μm)” value worked out at 418.2 µg (T = 0 w), 450.7 µg (T = 4 w) and 415.3 µg (T = 12 w).

(Values after patent publication US10155757B2, “Crystalline form of a JAK3 kinase inhibitor” (VECTURA LIMITED, priority 2015, dated 2018).)
